Tests used:
[1] = test system: antibodies toward amidochlor; experiment: inhibition ELISA for amidochlor; type: binding, rabbits; conditions: standard solutions at 10 and 50 ppb in DI water
Excerpt: (§1) The generation of antibodies toward butachlor (2-chloro-2′,6′-diethyl-N-(butoxymethyl)acetanilide), amidochlor (2-chloro-2′,6′-diethyl-N-acetamidomethyl acetanilide), and metolachlor (2-chloro-2′-ethyl-6′-methyl-N-(2-methoxy-1-methylethyl)acetanilide) were accomplished following identical procedures as those described for alachlor. The individual 14C-labeled chloroacetanilide was covalently bound to HSA (human serum albumin) with AHT, and to sheep IgG with AMSA.
(§2) The hapten-IgG conjugates were used to immunize rabbits. The corresponding hapten-BSA conjugates were then utilized in checkerboard assays to determine the presence of desired antibodies in the antisera. An inhibition ELISA for butachlor was set up with antiserum, butachlor-HSA screening antigen, and butachlor. Similar assays were also set up for amidochlor and metolachlor.
(§3) The sensitivity of the inhibition ELISA for butachlor, amidochlor, and metolachlor was tested with respective standards prepared in DI water. Using the best antiserum, the butachlor ELISA produced an IC50 of 8 ppb.
(§4) The specificity of the ELISA for butachlor, amidochlor, and metolachlor were tested using standard solutions of alachlor, acetochlor, butachlor, amidochlor, metolachlor, and propachlor at concentrations of 10 and 50 ppb in DI water. At these concentrations, the ELISA assay for butachlor, amidochlor, and metolachlor was each inhibited only by the respective free hapten, and not by any of the other chloroacetanilides.

[2] = test system: antibodies toward metolachlor; experiment: inhibition ELISA for metolachlor; type: binding, rabbits; conditions: standard solutions at 10 and 50 ppb in DI water
Excerpt: as §1, §2, §3, §4

[3] = test system: antibodies toward butachlor; experiment: inhibition ELISA for butachlor; type: binding, rabbits; conditions: standard solutions at 10 and 50 ppb in DI water
Excerpt: as §1, §2, §3, §4

[4] = test system: affinity column prepared from the serum of the first bleed of the rabbit immunized with the alachlor-IgG conjugate; experiment: affinity column extraction of alachlor and analogs from human urine; type: binding
Description: Affinity Chromatography. The preparation of affinity columns using rabbit antisera was as follows: The rabbit IgG's were purified by passing 5 mL of the antiserum through a column containing 5 mL of the swelled protein A-agarose gel. By monitoring the absorbance at 280 nm in the column effluent, the non-bound proteins were removed by washing with PBS, and the IgG's were then eluted with acetic acid at pH 2.3 (0.58% acetic acid and 0.15 M NaCl). […] The reusable protein A-agarose column was stored in PBS containing 0.02% sodium azide at 4°C.
The protein A-purified IgG was immobilized onto Affigel-10 affinity support. Affigel-10 (5 mL) was washed 3 times with isopropyl alcohol and 3 times with cold distilled water in a Buchner funnel. The gel was then added to a solution of IgG (3 mL in 0.1 M HEPES buffer, pH 7.5) at 4°C. Following 4 hrs of stirring, the gel was precipitated by gentle centrifugation and washed with HEPES buffer (3 x 3 mL). The remaining active sites on the gel were blocked by resuspending the gel in water (2 mL) and adding ethanolamine HCl (0.5 mL, 1M), and stirring the mixture at 22°C for 1 hr. […] After binding the alachlor, the column was washed with water (2 mL/min) to remove unbound material and alachlor was eluted with 75% aqueous methanol.

affinity column = affinity column extraction of alachlor from rat urine containing alachlor metabolites; type: binding, rabbit; conditions: 0.5 µg/2 mL Urine
Description: Affinity Chromatography. The preparation of affinity columns using rabbit antisera was as follows: The rabbit IgG's were purified by passing 5 mL of the antiserum through a column containing 5 mL of the swelled protein A-agarose gel. By monitoring the absorbance at 280 nm in the column effluent, the non-bound proteins were removed by washing with PBS, and the IgG's were then eluted with acetic acid at pH 2.3 (0.58% acetic acid and 0.15 M NaCl). The fractions containing the IgG's were combined and neutralized; based on the UV absorbance at 280 nm (absorbance/1.4 = mg/mL protein), approximately 33 mg of IgG were isolated from 5 mL of serum, which was then lyophilized and stored at -20°C. The reusable protein A-agarose column was stored in PBS containing 0.02% sodium azide at 4°C.
The protein A-purified IgG was immobilized onto Affigel-10 affinity support. Affigel-10 (5 mL) was washed 3 times with isopropyl alcohol and 3 times with cold distilled water in a Buchner funnel. The gel was then added to a solution of IgG (3 mL in 0.1 M HEPES buffer, pH 7.5) at 4°C. Following 4 hrs of stirring, the gel was precipitated by gentle centrifugation and washed with HEPES buffer (3 x 3 mL). The remaining active sites on the gel were blocked by resuspending the gel in water (2 mL) and adding ethanolamine HCl (0.5 mL, 1M), and stirring the mixture at 22°C for 1 hr. […]

Compound	inhibition of the ELISA assay for amidochlor [1]	inhibition of the ELISA assay for metolachlor [2]	inhibition of the ELISA assay for butachlor [3]	% 14C Eluent (75% CH3OH) ([4]; 1.0 µg/2 mL human urine) [%]	% 14C Wash (H2O) ([4]; 1.0 µg/2 mL human urine) [%]	% 14C Eluent (75% CH3OH) (affinity column) [%]	% 14C Wash (H2O) (affinity column) [%]	% 14C Eluent (75% CH3OH) ([4]; 0.1 µg/2 mL human urine) [%]	% 14C Wash (H2O) ([4]; 0.1 µg/2 mL human urine) [%]	% 14C Eluent (75% CH3OH) ([4]; 0.6 µg/2 mL human urine) [%]	% 14C Wash (H2O) ([4]; 0.6 µg/2 mL human urine) [%]	% 14C Eluent (75% CH3OH) ([4]; 1.4 µg/2 mL human urine) [%]	% 14C Wash (H2O) ([4]; 1.4 µg/2 mL human urine) [%]	% 14C Eluent (75% CH3OH) ([4]; 1.2 µg/2 mL human urine) [%]	% 14C Wash (H2O) ([4]; 1.2 µg/2 mL human urine) [%]
CCOCN(C(=O)CCl)c1c(C)cccc1CC [Acetochlor, acetochlor]	not	not	not	38.0	61.0	–	–	–	–	–	–	–	–	–	–
CCc1cccc(CC)c1N(COC)C(=O)CCl [Alachlor, α-chloro-2′,6′-diethyl-N-methoxymethyl acetanilide]	not	not	not	–	–	83.3	14.7	123.0	20.0	69.0	11.0	48.0	37.0	–	–
CC(C)N(C(=O)CCl)c1ccccc1 [Propachlor, propachlor]	not	not	not	–	–	–	–	–	–	–	–	–	–	11.0	88.0

From patent EP0340198B1, “Immunoassay for the detection of alpha-haloacetamides” (priority 1988, dated 1989)
